Measurements as given in publication PMC3017127, “Survey of Tyrosine Kinase Signaling Reveals ROS Kinase Fusions in Human Cholangiocarcinoma” (PLoS ONE, 2011).

Legend:
NPM-ALK = system: T1, NPM-ALK; test: Karpas-299 cell viability (CellTiter […] AQueous One, MTS); assay type: cell-based; details: 72 h; growth read-out of human lymphoma cells with endogenous fusion; control line
T1 construct: endogenous NPM-ALK fusion in Karpas-299 cells; with Nucleophosmin

FIG-ROS(L) = system: T2, FIG-ROS(L); test: BaF3 cell viability (CellTiter […] AQueous One, MTS), IL-3-independent growth; assay type: cell-based, Mus musculus; details: 72 h; growth read-out of cells depending on the fusion kinase; ROS phosphorylation read by Western blot in a separate 3 h test
T2 construct: gene ROS1; C-terminal Myc tag; MSCV-Neo in murine BaF3 cells; with Golgi-associated PDZ and coiled-coil motif-containing protein

FIG-ROS(S) = system: T3, FIG-ROS(S); test: as above; assay type: cell-based, Mus musculus; details: 72 h; growth read-out of cells depending on the fusion kinase; ROS phosphorylation read by Western blot in a separate 3 h test
T3 construct: gene ROS1; C-terminal Myc tag; MSCV-Neo in murine BaF3 cells; with Golgi-associated PDZ and coiled-coil motif-containing protein

For `COc1cc(N2CCC(N3CCN(C)CC3)CC2)ccc1Nc1ncc(Cl)c(Nc2ccccc2S(=O)(=O)C(C)C)n1` [TAE684], the IC50 (NPM-ALK) was […], the IC50 (FIG-ROS(L)) was 1.8 nM and the IC50 (FIG-ROS(S)) was 10 nM.
